Assay: Strength and degradation profile of tigecycline 20 mg/mL bulk solutions by reversed phase HPLC (effect of temperature, time, pH, dissolved oxygen; Runs A to O)
Format: physicochemical
Experimental: The contents of the sample vials are dissolved in diluent. The sample solution is diluted, if necessary, and chromatographed on a reversed phase column using gradient elution. Impurities are determined by comparing the impurity peak areas in the sample preparation chromatogram to the average area of tigecycline peaks in the standard preparation chromatograms obtained concomitantly.
Chromatographic Column—Length about 15 cm, inside diameter about 4.6 mm, packed with Inertsil ODS2, 5 μm size particles or equivalent.
Detector—Ultraviolet spectrophotometric detector capable of operating at 248 nm with a sensitivity of about 0.5 absorbance units full scale.
The results of additional studies to investigate the effect of processing parameters such as temperature, time, and dissolved oxygen content on the purity profile of tigecycline solutions using the following materials, methods and procedures are presented in Tables A to O.
The experiments were run in plastic glove bags under normal laboratory light conditions. Plastic glove boxes will be used to control the headspace of the beakers. The batch size was 200 mL. • 1. Prepare the glove bag with a mixture of nitrogen and air to achieve an oxygen level in the solution as per the design. • 2. Place the jacketed beaker on the magnetic stirrer. Connect it to the cooler. Set the cooler to the desired set point. • 3. Add 200 mL of SWFI in to the beaker. Allow equilibrating. Measure the temperature and oxygen content. When it reaches the desired condition, add accurately weighed API and mix until dissolved. If necessary use spatula to aid dissolution. For pH adjustments, use 4 mL of either 0.1N NaOH or 0.1N HCl and 196 mL of WFI for manufacture. • 4. After complete dissolution, Transfer about 5.5 mL of Solution in vials and stopper them. These vials will be stoppered at the appropriate headspace conditions. Place the vials in appropriate temperature conditions. • 5. Sample the vials at 1, 4, 8, 10, 12 and 24 hours. Send the samples for analysis. Freeze the 10, 12 and 24 samples at −20° C. for analysis the following day. • 6. Measure pH and record color of the solution at each time point. Results
The 1-hour samples were taken directly from the beakers. Samples for later time points were collected in stoppered vials processed in the atmosphere of the bag in order to simulate the headspace conditions then placed in water baths or refrigerator to maintain there respective temperature conditions. This was done to maintain safety in the lab. Disposable plastic glove bags require constant flow of a mixture of nitrogen and air to maintain headspace oxygen level that will result in the desired dissolved oxygen (DO) content in the sample. The pH of samples was measured at each sample points.
Strength and degradation profile was analyzed by HPLC as described above. […] Degradation was slightly higher at higher temperature condition.

[1] = Run #N, 8° C., pH 8.2, Oxygen = 0.1 mg/L, 4 Hrs
[2] = Run #N, 8° C., pH 8.2, Oxygen = 0.1 mg/L, 8 Hrs
[3] = Run #N, 8° C., pH 8.2, Oxygen = 0.1 mg/L, 12 Hrs
[4] = Run #N, 8° C., pH 8.2, Oxygen = 0.1 mg/L, 24 Hrs
[5] = Run #O, 20 mg/mL, 5° C., Oxygen = 0.1 mg/mL, hours 1,4,8,12,24 at r7-r11, time 1 h
[6] = Run #O, 20 mg/mL, 5° C., Oxygen = 0.1 mg/mL, hours 1,4,8,12,24 at r7-r11, time 4 h
[7] = Run #O, 20 mg/mL, 5° C., Oxygen = 0.1 mg/mL, hours 1,4,8,12,24 at r7-r11, time 8 h
[8] = Run #O, 20 mg/mL, 5° C., Oxygen = 0.1 mg/mL, hours 1,4,8,12,24 at r7-r11, time 12 h
[9] = Run #O, 20 mg/mL, 5° C., Oxygen = 0.1 mg/mL, hours 1,4,8,12,24 at r7-r11, time 24 h

CN(C)c1cc(NC(=O)CNC(C)(C)C)c(O)c2c1C[C@H]1C[C@H]3[C@H](N(C)C)C(O)=C(C(N)=O)C(=O)[C@@]3(O)C(O)=C1C2=O [Tigecycline]
RRT 0.78 MW = 557 [1]: BRL (BRL means below reporting limit (meaning less than 0.05% of tigecycline peak)) | RRT 1.12 [1]: BRL (BRL means below reporting limit (meaning less than 0.05% of tigecycline peak)) | RRT 1.45 [1]: 0.07% | RRT 1.58 [1]: BRL (BRL means below reporting limit (meaning less than 0.05% of tigecycline peak)) | RRT 1.64 Mino [1]: 0.10% | RRT 1.67 MW = 556 [1]: BRL (BRL means below reporting limit (meaning less than 0.05% of tigecycline peak)) | RRT 1.85 MW = 597 [1]: 0.09% | Strength [1]: 19.378 mg/mL | Total [1]: 0.54% | RRT 0.12 MW = 633 [2]: BRL (BRL means below reporting limit (meaning less than 0.05% of tigecycline peak)) | RRT 0.23 MW = 572 [2]: BRL (BRL means below reporting limit (meaning less than 0.05% of tigecycline peak)) | RRT 0.50 MW = 601 [2]: BRL (BRL means below reporting limit (meaning less than 0.05% of tigecycline peak)) | RRT 0.55 MW = 583 [2]: BRL (BRL means below reporting limit (meaning less than 0.05% of tigecycline peak)) | RRT 0.58 [2]: 0.07% | RRT 0.64 9-Amino [2]: BRL (BRL means below reporting limit (meaning less than 0.05% of tigecycline peak)) | RRT 0.74 Epimer [2]: 0.22% | RRT 0.76 [2]: BRL (BRL means below reporting limit (meaning less than 0.05% of tigecycline peak)) | RRT 0.78 MW = 557 [2]: BRL (BRL means below reporting limit (meaning less than 0.05% of tigecycline peak)) | RRT 1.12 [2]: BRL (BRL means below reporting limit (meaning less than 0.05% of tigecycline peak)) | RRT 1.45 [2]: 0.08% | RRT 1.58 [2]: BRL (BRL means below reporting limit (meaning less than 0.05% of tigecycline peak)) | RRT 1.64 Mino [2]: 0.08% | RRT 1.67 MW = 556 [2]: BRL (BRL means below reporting limit (meaning less than 0.05% of tigecycline peak)) | RRT 1.85 MW = 597 [2]: 0.08% | Strength [2]: 19.275 mg/mL | Total [2]: 0.53% | RRT 0.12 MW = 633 [3]: BRL (BRL means below reporting limit (meaning less than 0.05% of tigecycline peak)) | RRT 0.23 MW = 572 [3]: BRL (BRL means below reporting limit (meaning less than 0.05% of tigecycline peak)) | RRT 0.50 MW = 601 [3]: BRL (BRL means below reporting limit (meaning less than 0.05% of tigecycline peak)) | RRT 0.55 MW = 583 [3]: 0.07% | RRT 0.58 [3]: 0.06% | RRT 0.64 9-Amino [3]: BRL (BRL means below reporting limit (meaning less than 0.05% of tigecycline peak)) | RRT 0.74 Epimer [3]: 0.31% | RRT 0.76 [3]: BRL (BRL means below reporting limit (meaning less than 0.05% of tigecycline peak)) | RRT 0.78 MW = 557 [3]: BRL (BRL means below reporting limit (meaning less than 0.05% of tigecycline peak)) | RRT 1.12 [3]: BRL (BRL means below reporting limit (meaning less than 0.05% of tigecycline peak)) | RRT 1.45 [3]: 0.08% | RRT 1.58 [3]: 0.05% | RRT 1.64 Mino [3]: 0.11% | RRT 1.67 MW = 556 [3]: 0.07% | RRT 1.85 MW = 597 [3]: 0.08% | Strength [3]: 19.382 mg/mL | Total [3]: 0.83% | RRT 0.12 MW = 633 [4]: BRL (BRL means below reporting limit (meaning less than 0.05% of tigecycline peak)) | RRT 0.23 MW = 572 [4]: BRL (BRL means below reporting limit (meaning less than 0.05% of tigecycline peak)) | RRT 0.50 MW = 601 [4]: BRL (BRL means below reporting limit (meaning less than 0.05% of tigecycline peak)) | RRT 0.55 MW = 583 [4]: BRL (BRL means below reporting limit (meaning less than 0.05% of tigecycline peak)) | RRT 0.58 [4]: 0.06% | RRT 0.64 9-Amino [4]: BRL (BRL means below reporting limit (meaning less than 0.05% of tigecycline peak)) | RRT 0.74 Epimer [4]: 0.31% | RRT 0.76 [4]: BRL (BRL means below reporting limit (meaning less than 0.05% of tigecycline peak)) | RRT 0.78 MW = 557 [4]: BRL (BRL means below reporting limit (meaning less than 0.05% of tigecycline peak)) | RRT 1.12 [4]: BRL (BRL means below reporting limit (meaning less than 0.05% of tigecycline peak)) | RRT 1.45 [4]: 0.10% | RRT 1.58 [4]: 0.05% | RRT 1.64 Mino [4]: 0.13% | RRT 1.67 MW = 556 [4]: 0.07% | RRT 1.85 MW = 597 [4]: 0.11% | Strength [4]: 19.211 mg/mL | Total [4]: 0.82% | RRT 0.74 Epimer [5]: 0.21% | RRT 1.85 MW = 597 [5]: 0.08% | Strength [5]: 18.777 mg/mL | RRT 0.58 [6]: 0.09% | RRT 0.74 Epimer [6]: 0.23% | Strength [6]: 18.971 mg/mL | Total [6]: 0.53% | RRT 1.45 [7]: 0.09% | RRT 1.64 Mino [7]: 0.06% | RRT 1.85 MW = 597 [7]: 0.09% | Strength [7]: 19.051 mg/mL | RRT 0.58 [8]: 0.07% | RRT 0.74 Epimer [8]: 0.24% | RRT 1.45 [8]: 0.07% | RRT 1.64 Mino [8]: 0.08% | RRT 1.85 MW = 597 [8]: 0.10% | Strength [8]: 18.722 mg/mL | Total [8]: 0.55% | RRT 0.74 Epimer [9]: 0.25% | RRT 1.64 Mino [9]: 0.11% | RRT 1.85 MW = 597 [9]: 0.06% | Strength [9]: 19.238 mg/mL | Total [9]: 0.56% | effect of pH on the degradation of tigecycline bulk solution (range of pH (7.7-8.2) studied): did not have any significant effect | degradation (when oxygen is removed from the process and the temperature is controlled): very little degradation is seen
